Assay results as given in publication PMC12613848, “First in human phase 1 study of DT2216, a selective BCL-xL degrader, in patients with relapsed/refractory solid malignancies” (Journal of Hematology & Oncology, 2025).
“Also recorded” adds a separate entry of the source.

Experiments:
advanced solid tumors = test: Efficacy in patients (RECIST v1.1, Kaplan-Meier survival); type: in vivo, human
Source text: The primary objective of the escalation phase was to determine the recommended phase 2 dose (RP2D) for DT2216. The secondary objectives were to characterize the adverse event (AE) profile, determine the pharmacokinetic profile (PK)/pharmacodynamic profile (PD) and describe preliminary evidence of efficacy using objective response rate (ORR), disease control rate (DCR), and progression-free survival (PFS) based on Response Evaluation Criteria in Solid Tumors (RECIST) v1.1. Exploratory objectives were to characterize the baseline and on-treatment expression of BCL-XL and VHL on blood lymphocytes, as well as other circulating biomarkers. Exploratory objectives included characterizing the baseline and on-treatment changes in platelet count and correlating them with DT2216 drug levels.
Patients were allowed a maximum of two intra-patient dose escalations. Patients received DT2216 by intravenous infusion on days 1 and 4 weekly for at least 4 weeks, with each cycle consisting of a 28-day cycle for a maximum duration of 1 year until disease progression, unacceptable toxicity, or other withdrawal criteria, as listed in the protocol. The extent of disease was evaluated using imaging studies and disease-appropriate tumor markers every 8 weeks from day 1 of the first cycle. RP2D was established based on MTD as well as other relevant data, including clinical signals of activity, PK, and PD data.
Premedication prior to each infusion was at the discretion of the investigator or according to institutional guidelines. Patient assessment and follow-up procedures can be found in the schedule of assessments in this study. The clinical response was evaluated using RECIST v1.1 per protocol. Blood samples were collected for PK analysis before and after post-infusion at defined intervals, along with platelet counts. Exploratory biomarkers include (but are not limited to) the assessment of BCL-XL and VHL levels in peripheral white blood cells (WBC).
Descriptive statistics were used to display dose escalation data and results. Continuous variables, including baseline characteristics, will be summarized by reporting the number of observations, mean, standard deviation, median, minimum, and maximum values. Categorical/discrete variables will be summarized using frequency tables that show the number and percentage of subjects within a category. Time-to-event analysis was performed using the Kaplan–Meier method. The overall response rate (ORR) and its 2-sided 95% confidence interval (CI) were calculated using the Clopper-Pearson method.

BCL-XL = molecular target: T1, BCL-XL (Homo sapiens, UniProt Q07817); test: BCL-XL levels in WBCs from a normal human donor after incubation with DT2216; type: cell-based; conditions: increasing concentrations, approximately 16 hours incubation, beta actin control
T1 construct: endogenous in cells; host or cells: peripheral leukocytes (WBC) of trial patients
T1 sequence (Q07817 whole entry): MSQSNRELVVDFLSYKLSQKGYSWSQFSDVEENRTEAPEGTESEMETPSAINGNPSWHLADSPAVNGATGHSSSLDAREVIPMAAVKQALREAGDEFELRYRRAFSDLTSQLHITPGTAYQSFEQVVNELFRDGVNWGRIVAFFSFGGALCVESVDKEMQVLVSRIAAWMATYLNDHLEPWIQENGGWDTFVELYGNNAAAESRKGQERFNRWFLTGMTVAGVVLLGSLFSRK
Method: Fig. 5 Levels of BCL-XL in WBCs from a normal human donor. They were determined after incubation with increasing concentrations of DT2216 as depicted in the figure for approximately 16 hours. […] BCL-XL expression after incubation with DT2216 in comparison to beta actin which acts as control in the figure

Myla cells (CTCL) = test: In vitro IC90, Myla cells; type: cell-based
Method: Fig. 7 Mean Plasma concentration of DT2216 in 4 patients infused with DT2216 at 0.4 mg/kg over time against in vitro inhibitory concentration 90%(IC90) for various cell lines. SCLC – small cell lung cancer; OC- ovarian carcinoma; T-ALL – T cell acute lymphoblastic leukemia, CTCL – Cutaneous T cell lymphoma TEXT PRINTED IN THE PICTURE: DT2216: IC90 (≈ 1000 nM) for H146 cells (SCLC); IC90 (< 1000 nM) for OVCAR4 cells (OC); IC90 (≈ 500 nM) for MOLT-4 cells (T-ALL); IC90 (< 100 nM) for OVCAR4 cells (OC)* (*In combination with Carboplatin); IC90 (≈ 100 nM) for H146 cells (SCLC)** (**In combination with SN-38/irinotecan); IC90 (30 nM) for Myla cells (CTCL)

[1] = Cohort 1 (0.04 mg/kg), 1 treated
[2] = Cohort 2 (0.08 mg/kg), 1 treated
[3] = Cohort 3 (0.12 mg/kg), 1 treated
[4] = Cohort 4 (0.24 mg/kg), 7 treated
[5] = Cohort 5 (0.32 mg/kg), 6 treated
[6] = Cohort 6 (0.40 mg/kg), 4 treated

Cc1ncsc1-c1ccc([C@H](C)NC(=O)[C@@H]2C[C@@H](O)CN2C(=O)[C@@H](NC(=O)CCCCCC(=O)N2CCN(CC[C@H](CSc3ccccc3)Nc3ccc(S(=O)(=O)NC(=O)c4ccc(N5CCN(CC6=C(c7ccc(Cl)cc7)CCC(C)(C)C6)CC5)cc4)cc3S(=O)(=O)C(F)(F)F)CC2)C(C)(C)C)cc1 [DT2216]
patients who discontinued treatment because of objective disease progression (advanced solid tumors; 15/20 patients): 75% | stable disease (best response per RECIST v1.1), share of patients (advanced solid tumors; 20 patients, 0.04 to 0.4 mg/kg IV BIW): 20% | Treatment discontinuation: Clinical progression of neoplastic disease (subjects) (advanced solid tumors; [1]): 1 | Treatment discontinuation: Objective progression of neoplastic disease (subjects) (advanced solid tumors; [1]): 0 | Treatment discontinuation: Clinical progression of neoplastic disease (subjects) (advanced solid tumors; [2]): 0 | Treatment discontinuation: Objective progression of neoplastic disease (subjects) (advanced solid tumors; [2]): 1 | Treatment discontinuation: Clinical progression of neoplastic disease (subjects) (advanced solid tumors; [3]): 0 | Treatment discontinuation: Objective progression of neoplastic disease (subjects) (advanced solid tumors; [3]): 1 | Treatment discontinuation: Clinical progression of neoplastic disease (subjects) (advanced solid tumors; [4]): 2 | Treatment discontinuation: Objective progression of neoplastic disease (subjects) (advanced solid tumors; [4]): 4 | Treatment discontinuation: Clinical progression of neoplastic disease (subjects) (advanced solid tumors; [5]): 1 | Treatment discontinuation: Objective progression of neoplastic disease (subjects) (advanced solid tumors; [5]): 5 | Treatment discontinuation: Clinical progression of neoplastic disease (subjects) (advanced solid tumors; [6]): 0 | Treatment discontinuation: Objective progression of neoplastic disease (subjects) (advanced solid tumors; [6]): 4 | median overall survival (advanced solid tumors; Kaplan–Meier, 95% CI 4.0 – NE): 7.9 months | Treatment discontinuation: Clinical progression of neoplastic disease (subjects) (advanced solid tumors; Total, 20 treated): 4 | Treatment discontinuation: Objective progression of neoplastic disease (subjects) (advanced solid tumors; Total, 20 treated): 15 | median duration of response (stable disease) (advanced solid tumors; human, in vivo): 107 days | target liver lesions versus baseline (advanced solid tumors; one person, non-small cell lung adenocarcinoma, 0.24 mg/kg, after C4): decrease in size of target liver lesions | single-agent activity (advanced solid tumors; patients with different advanced solid tumors): did not demonstrate single-agent activity | BCL-XL levels in normal human donor WBCs (BCL-XL): capable of completely degrading BCL-XL; also recorded: dose dependent degradation | IC90 (Myla cells (CTCL)): 30 nM
